Laboratory results taken from ChEMBL document CHEMBL1136649, “Synthesis and antibacterial study of 10, 15, 20-triphenyl-5-(4-hydroxy-3-(trimethylammonium)methyl)phenylporphyrin as models for combination of porphyrin and alkylating agent” (2003).
≈ marks a conversion by molar mass, not a printed value.

Tested on: Staphylococcus aureus
Test: Minimum inhibitory concentration required against Staphylococcus aureus ATCC 25923
Format: functional

| MIC | SMILES |
| --- | --- |
| 120 µM (≈ 82.5 µg/mL) | CN(C)Cc1cc(-c2c3nc(c(-c4ccccc4)c4ccc([nH]4)c(-c4ccccc4)c4nc(c(-c5ccccc5)c5ccc2[nH]5)C=C4)C=C3)ccc1O |
| 240 µM | COc1ccc(-c2c3nc(c(-c4ccccc4)c4ccc([nH]4)c(-c4ccccc4)c4nc(c(-c5ccccc5)c5ccc2[nH]5)C=C4)C=C3)cc1C[N+](C)(C)C |
| 60 µM | C[N+](C)(C)Cc1cc(-c2c3nc(c(-c4ccccc4)c4ccc([nH]4)c(-c4ccccc4)c4nc(c(-c5ccccc5)c5ccc2[nH]5)C=C4)C=C3)ccc1O |
